In patent US20190315775A1, “MODIFIED […] AND PHARMACEUTICAL COMPOSITION HAVING SAME AS ACTIVE INGREDIENT” (KEIO UNIVERSITY, priority 2016, published 2019):

Assays:
[1] = tested on: KMS26 high-risk MM cell line; experiment: MTT cell proliferation inhibition, KMS26; assay type: cell-based; conditions: Homo sapiens, KMS-26, KMS26, t(4;14), t(4;16), del17, 48 hours, read-out: IC50, cell proliferation inhibitory activity, KMS26
Procedure: (§1) For examination of cell proliferation inhibitory activity, high-risk MM cell lines (KMM1, KMS11, KMS21, KMS26, KMS28, KMS34) established by Takemi Otsuki et al., of Kawasaki Medical School were used (Otsuki, T. et al., Int. J. Oncol., 15: 1205-1212, 1999). […] The genetic abnormality of these cell types, and in particular deletion of p53 gene were examined by FISH method (Chang, H. Blood, 105: 358-360, 2005) (WO2010/061862A1). […] These high-risk MM cell lines were treated with drugs such as TC11, HOEtO-TC11, PEG11(E)-TC11, and PEG11(O)-TC11 at arbitrary concentrations. […] Specifically, each high-risk MM cell line was prepared at a concentration of 2×10^5 cells/ml, and then seeded in an amount of 50 μl (1×10^4 cells) per well. After 24 hours, drugs such as TC11, HOEtO-TC11, PEG11(E)-TC11, and PEG11(O)-TC11 having arbitrary concentrations were added. At 48 hours after addition of each drug, 10 μL each of an MTT labeling reagent in Cell Proliferation Kit I [MTT] (Roche Diagnostics, Basel, Switzerland) was added. After 4 hours of treatment at 37° C., 100 μL each of solution buffer was added and then left to stand overnight at 37° C. Absorbance was measured using a microplate reader Infinit™ M1000 (Tecan, Maennedorf, Switzerland) at a wavelength of 570 nm. Cell viability was found from an absorbance ratio using absorbance at 0 μM designated as 100%. IC50 was calculated from a semi-logarithmic chart using Microsoft (registered trademark) Excel.

[2] = Stability in mouse blood after intraperitoneal administration (HPLC); assay type: in vivo, ICR mice; conditions: for Residual drug within the abdominal cavity: after intraperitoneal administration to mice; for Stability in mouse blood: i.p., equimolar to 20 mg/kg BW TC11, HPLC peaks 0.5-1.5 hours after administration
Procedure: First, PEG11(E)-TC11(A) and PEG11(O)-TC11(B) were examined for stability in mouse blood. To 5-week-old male ICR mice (CLEA Japan, Tokyo, Japan), PEG11(E)-TC11 and PEG11(O)-TC11 were administered intraperitoneally at 59.1 mg/kg BW and 54.6 mg/kg BW, respectively, in such a manner that each molar concentration was equivalent to that of 20 mg/kg BW of TC11. At 0, 0.5, 1, 1.5, 4, 8, 12, and 24 hours later, a tail vein was punctured with a 26G needle for bleeding, and then about 100 μL of blood was collected using a heparinized hematocrit capillary tube (Terumo, Tokyo, Japan). After blood collection, blood was transferred into a 0.5-mL tube, and then subjected to centrifugation at 4° C. and 3,400 G for 15 minutes. Subsequently, the supernatant was collected, and then cryopreserved at −80° C. A quality control serum, Consera (registered trademark) (Nissui pharmaceutical, Tokyo, Japan) was dissolved in 3 mL of distilled water (dH2O) per bottle. After left to stand for 30 minutes, bottles were turned upside-down (mixing by inversion) and then used. Consera (190 μL) was mixed with the collected blood plasma and 10 μL of urine, thereby preparing samples. Moreover, PEG11(E)-TC11 and HOEtO-TC11 were each diluted with dH2O in such a manner that the concentrations were 0, 2, 4, 6, 8, and 10 μM, and then 10 μL of the solution at each concentration and 190 μL of Consera were mixed, thereby preparing a calibration curve sample. Sep-Pak (registered trademark) C18 solid phase extraction cartridge (Waters Associates, Massachusetts, USA) was washed with 2 mL of 100% CH3CN, and then equilibrated with 4 mL of dH2O. Each sample and a sample for preparing a calibration curve were added to the cartridge, and then rinsed with 200 μL of dH2O. Subsequently, the resultant was washed with 2 mL of dH2O, 2 mL of 40% CH3CN, and 250 μL of 100% CH3CN, and then eluted with 1 mL of 100% CH3CN. The eluate was evaporated under vacuum using a centrifugal evaporator CVE-2000 (TOKYO […] CO, LTD, Tokyo, Japan), re-dissolution was performed with 100 μL of 100% EtOH, and then filtration was performed using a chromatodisc having a pore size of 0.45 μm (GL sciences, Tokyo, Japan). The high performance liquid chromatography (High Performance Liquid Chromatography; HPLC) apparatuses used herein are the following apparatuses manufactured by JASCO (Tokyo, Japan).
HPLC analysis was conducted using Inertsil (registered trademark) ODS-3 […]×Φ4.6 mm as a stationary phase, CH3CN:dH2O=50:50 as a mobile phase, a flow rate of 0.70 mL/min, a UV detection wavelength of 267 nm, and an excitation wavelength of 380 nm, a fluorescence wavelength of 530 nm, and an injection amount of 10 μL at a column temperature of 25° C.

[3] = Dissolution in physiological saline for dosing; assay type: physicochemical; conditions: physiological saline (NaCl 0.9 w/v %) alone, dosing concentration
[4] = tested on: Li-7 (human liver cancer cells); experiment: WST-1 proliferation assay (Example 10), Li-7; assay type: cell-based; conditions: U-7 (head of Table 4), WST-1, 48 hours
Procedure: Cancer cells used herein were KMS34 (human myeloma cells), HeLa (human cervical cancer cells), HCT116 (human colon cancer cells; p53+/+), KATOIII (human stomach cancer cells), MDA-MB-231 (human breast cancer cells), HT-29 (human colon adenocarcinoma cells), PANC-1 (human pancreatic cancer cells), and Li-7 (human liver cancer cells). Proliferation assay of various cancer cells was performed by the WST-1 method (Cook, J A. & Mitchell, J B., Anal. Biochem., 179, 1-7, 1984) as follows. One μ1 each of PEG11(E)-TC11 and PEG11(O)-TC11 prepared in advance at target concentrations was added into each well of a 96-well microplate. Medium was added to the wells at 50 μl per well, and then mixed by tapping lightly the plate. Subsequently, KMS34 was prepared at a concentration of 5×10^5 cells/ml, and cells other than KMS34 were prepared at a concentration of 2×10^5 cells/ml. Cells were seeded at 50 μl per well (2.5×10^4 cells, 1×10^4 cells), and then incubated in a CO2 incubator (37° C., 5% CO2) for 48 hours. […] Subsequently, the plate was shaken with a plate reader for 1 minute, and then absorbance was measured at 450 nm. At this time, absorbance was also measured at 595 nm as a reference wavelength. The net absorbance was obtained by subtracting the absorbance at the reference wavelength from the absorbance at 450 nm.

[5] = tested on: KMM1 high-risk MM cell line; experiment: MTT cell proliferation inhibition, KMM1; assay type: cell-based; conditions: Homo sapiens, KMM-1, KMM1, t(6;14), t(8;14), del17, 48 hours, read-out: IC50, cell proliferation inhibitory activity, KMM1
Procedure: as §1

COCCOCCOCCOCCOCCOCCOCCOCCOCCOCCOCCOCCOc1cc2c(cc1N)C(=O)N(c1c(C(C)C)cccc1C(C)C)C2=O [PEG11(O)-TC11]
IC50 [1]: 16.4 µM
Residual drug within the abdominal cavity [2]: no residual drug was observed
Stability in mouse blood [2]: not degraded with esterase in blood
Dissolution in physiological saline [3]: completely dissolved
IC50 [4]: 87 µM
IC50 [5]: 59.3 µM

COCCOCCOCCOCCOCCOCCOCCOCCOCCOCCOCCOCCC(=O)OCCOc1cc2c(cc1N)C(=O)N(c1c(C(C)C)cccc1C(C)C)C2=O [PEG11(E)-TC11]
IC50 [1]: 2.7 µM
Residual drug within the abdominal cavity [2]: no residual drug was observed
Stability in mouse blood [2]: quickly hydrolyzed with esterase in blood, and converted to HOEtO-TC11
Dissolution in physiological saline [3]: completely dissolved
IC50 [4]: 9.4 µM
IC50 [5]: 6.3 µM

CC(C)c1cccc(C(C)C)c1N1C(=O)c2ccc(N)cc2C1=O [TC11, 2-(2,6-di-isopropylphenyl)-5-amino-1H-isoindole-1,3-dione, reference compound]
IC50 [1]: 3 µM
Dissolution in physiological saline [3]: hardly dissolved
IC50 [5]: 5.1 µM
